Reference: US20250304643A1, “PEPTIDE DUAL AGONISTS OF GIPR AND GLP2R” (BAINAN BIOTECH APS, priority 2021, published 2025)
Read-outs that look alike come from different tables or passages of the source.

Assays:
Type in all cases: cell-based
rat GIPR = target: T1, rat GIPR (Rattus norvegicus, UniProt P43219); test: HitHunter cAMP assay in transiently transfected COS-7 cells, rat GIPR; conditions: Emax normalized to highest concentration of endogenous ligand
T1 construct: expressed in transfected cells; host or cells: COS-7
T1 sequence (P43219 19-455): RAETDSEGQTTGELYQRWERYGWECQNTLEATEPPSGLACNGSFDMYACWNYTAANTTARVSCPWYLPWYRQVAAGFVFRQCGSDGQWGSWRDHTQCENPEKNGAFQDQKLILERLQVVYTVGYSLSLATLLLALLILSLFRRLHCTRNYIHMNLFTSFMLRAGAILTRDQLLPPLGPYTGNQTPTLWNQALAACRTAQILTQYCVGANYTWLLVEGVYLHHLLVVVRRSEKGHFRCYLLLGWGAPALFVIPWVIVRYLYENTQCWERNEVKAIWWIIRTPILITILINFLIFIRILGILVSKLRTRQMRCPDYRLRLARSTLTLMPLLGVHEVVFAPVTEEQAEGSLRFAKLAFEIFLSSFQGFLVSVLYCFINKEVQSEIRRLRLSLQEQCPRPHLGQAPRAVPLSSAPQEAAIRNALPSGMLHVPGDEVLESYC
Method: (§1) The next day the assay was initiated by washing with HEPES buffered saline (HBS) and followed by an incubation step with assay buffer (HBS added 1 mM isobutyl-1-methylxanthine (IBMX)) for 30 min at 37° C. The ligands were then added and incubated for an additional 30 min at 37° C. After ligand incubation, the HitHunter® CAMP assay (Eurofins DiscoverX, Fremont, […] USA) was carried out according to the manufacturer's instructions. Luminescence was measured by PerkinElmer™ EnVision 2014 Multilabel Reader (PerkinElmer, Waltham, MA). The potencies (EC50 values) were determined by nonlinear regression using GraphPad Prism 9 (San Diego, California, USA). Sigmoid curves were fitted logistically. The efficacies (Emax values) were determined by normalization to the highest concentration applied of the endogenous ligand for each receptor.

human GLP-2R = target: T2, human GLP-2R (Homo sapiens, UniProt O95838); test: HitHunter cAMP assay in transiently transfected COS-7 cells, human GLP-2R;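 note: cells kept 30 min at 37 °C in buffer with 1 mM IBMX, then given ligand for another 30 min at 37 °C before cAMP readout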
T2 construct: host or cells: COS-7
T2 sequence (O95838 1-553): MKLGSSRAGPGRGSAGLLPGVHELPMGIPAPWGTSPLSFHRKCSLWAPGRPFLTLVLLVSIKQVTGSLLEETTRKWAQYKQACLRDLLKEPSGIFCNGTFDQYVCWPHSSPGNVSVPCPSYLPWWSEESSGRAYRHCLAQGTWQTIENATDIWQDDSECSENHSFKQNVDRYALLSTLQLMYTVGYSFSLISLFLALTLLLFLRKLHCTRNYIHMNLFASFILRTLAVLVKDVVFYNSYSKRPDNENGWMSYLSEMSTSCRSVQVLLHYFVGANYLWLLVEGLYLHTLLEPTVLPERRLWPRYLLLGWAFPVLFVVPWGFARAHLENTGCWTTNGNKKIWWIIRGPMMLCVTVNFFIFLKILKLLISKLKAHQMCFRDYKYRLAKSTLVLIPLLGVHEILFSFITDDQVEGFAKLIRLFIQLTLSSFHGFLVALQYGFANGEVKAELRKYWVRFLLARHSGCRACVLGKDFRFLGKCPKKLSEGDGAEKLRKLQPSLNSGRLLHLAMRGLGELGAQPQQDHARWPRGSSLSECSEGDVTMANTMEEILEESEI
Method: COS-7 cells were cultured at 10% CO2 and 37° C. in Dulbecco's Modified Eagle Medium (DMEM) 1885 supplemented with 10% fetal bovine serum (FBS), 2 mM glutamine, 180 units/ml penicillin, and 45 g/ml streptomycin.
The next day the assay was initiated by washing with HEPES buffered saline (HBS) and followed by an incubation step with assay buffer (HBS added 1 mM isobutyl-1-methylxanthine (IBMX)) for 30 min at 37° C. The ligands were then added and incubated for an additional 30 min at 37° C. After ligand incubation, the HitHunter® CAMP assay (Eurofins DiscoverX, Fremont, 150 USA) was carried out according to the manufacturer's instructions. Luminescence was measured by PerkinElmer™ EnVision 2014 Multilabel Reader (PerkinElmer, Waltham, MA). The potencies (EC50 values) were determined by nonlinear regression using GraphPad Prism 9 (San Diego, California, USA). Sigmoid curves were fitted logistically. The efficacies (Emax values) were determined by normalization to the highest concentration applied of the endogenous ligand for each receptor.

human GLP-1R = target: T3, human GLP-1R (Homo sapiens, UniProt P43220); test: HitHunter cAMP assay in transiently transfected COS-7 cells, human GLP-1R; conditions: for activation of hGLP-1R: fatty acid at C-terminal residue or position 16
T3 construct: host or cells: COS-7
Method: as §1

human GIPR [1] = target: T4, human GIPR (Homo sapiens, UniProt P48546); parameters: host or cells: COS-7
T4 sequence (P48546 22-466): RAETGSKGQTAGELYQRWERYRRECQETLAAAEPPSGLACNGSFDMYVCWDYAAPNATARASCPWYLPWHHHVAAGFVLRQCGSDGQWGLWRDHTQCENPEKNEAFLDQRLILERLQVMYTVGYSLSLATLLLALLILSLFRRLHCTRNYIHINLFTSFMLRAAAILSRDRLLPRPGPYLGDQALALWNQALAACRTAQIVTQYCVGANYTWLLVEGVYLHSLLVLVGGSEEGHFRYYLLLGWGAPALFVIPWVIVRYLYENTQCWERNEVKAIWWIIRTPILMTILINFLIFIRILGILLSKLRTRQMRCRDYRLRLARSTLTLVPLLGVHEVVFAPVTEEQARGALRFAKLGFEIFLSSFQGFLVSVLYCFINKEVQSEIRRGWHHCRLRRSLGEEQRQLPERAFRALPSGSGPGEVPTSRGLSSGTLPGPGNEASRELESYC

rat GLP-2R = target: T5, rat GLP-2R (Rattus norvegicus, UniProt Q9Z0W0); test: HitHunter cAMP assay in transiently transfected COS-7 cells, rat GLP-2R; conditions: Emax normalized to highest concentration of endogenous ligand
T5 construct: expressed in transfected cells; host or cells: COS-7
T5 sequence (Q9Z0W0 1-550): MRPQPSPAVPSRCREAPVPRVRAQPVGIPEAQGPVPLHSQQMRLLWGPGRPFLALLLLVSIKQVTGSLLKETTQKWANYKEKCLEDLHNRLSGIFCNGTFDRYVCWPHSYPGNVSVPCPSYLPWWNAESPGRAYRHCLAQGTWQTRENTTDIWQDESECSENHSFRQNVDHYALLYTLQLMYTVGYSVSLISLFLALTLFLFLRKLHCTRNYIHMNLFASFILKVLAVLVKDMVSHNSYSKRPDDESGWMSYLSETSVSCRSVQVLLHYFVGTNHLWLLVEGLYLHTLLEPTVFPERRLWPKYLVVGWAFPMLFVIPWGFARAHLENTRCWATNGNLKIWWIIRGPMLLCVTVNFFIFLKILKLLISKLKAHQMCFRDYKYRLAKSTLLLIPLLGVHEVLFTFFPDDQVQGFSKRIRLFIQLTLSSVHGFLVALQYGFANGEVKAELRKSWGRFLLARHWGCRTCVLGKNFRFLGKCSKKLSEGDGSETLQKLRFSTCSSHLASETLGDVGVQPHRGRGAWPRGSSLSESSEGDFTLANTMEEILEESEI
Method: as §1

human SNAP-GIPR = target: T6, human SNAP-GIPR (Homo sapiens, UniProt P48546); parameters: AUC ± SD: unit not given beside the values; conditions: for Emax ± SD (%): NA = no activity
T6 construct: host or cells: HEK293A
T6 sequence (P48546 22-466): T4 sequence (P48546 22-466)

human GIPR [2] = target: T4, human GIPR; parameters: host or cells: HEK293; conditions: beta-arrestin 2 recruitment; for AUC ± SD: AUC of sigmoid curves up to 100 nM; for Emax ± SD (%): normalized to highest concentration of GIP, NA = no activity
Method: HEK293 cells were cultured at 10% CO2 and 37° C. in DMEM-GlutaMAX™-I supplemented with 10% FBS, 180 units/mL penicillin and 45 g/mL streptomycin. These cells were transfected using PEI for the beta-arrestin recruitment assay as described in detail in (van der Velden et al., 2021).
HEK293 cells were transiently transfected with human GIPR, the donor Rluc8-Arrestin-3-Sp1 (beta-arrestin 2 recruitment), the acceptor mem-linker-citrine-SH3, and the GPCR kinase 2 (GRK2). Two days following transfection, the cells were washed with PBS and resuspended in PBS with 5 mM glucose. Then, 85 μL of the cell suspension solution was added to each well of a white 96-well plate followed by the addition of PBS with 5 μM coelenterazine-h. Following 10 min incubation, increasing concentrations of ligands were added and incubated for an additional 30 min. Luminescence was measured with the Berthold Technologies Mithras Multilabel Reader (Rluc8 at 485±40 nm and YFP at 530±25 nm). The potencies (EC50 values) were determined by nonlinear regression using GraphPad Prism 9 (San Diego, California, USA). Sigmoid curves were fitted logistically. The efficacies (Emax values) were determined by normalization to the highest concentration applied of the endogenous ligand (GIP) for the GIPR.

macaque GIPR = test: HitHunter cAMP assay in transiently transfected COS-7 cells, macaque GIPR
Method: as §1

[3] = Emax normalized to highest concentration of endogenous ligand, Table 2
[4] = Emax normalized to highest concentration of endogenous ligand, Table 3
[5] = comparative peptides, Emax normalized to endogenous ligand, Table B
[6] = comparative peptides, Emax normalized to endogenous ligand, Table C
[7] = comparative peptides, Emax normalized to endogenous ligand, Table 4A

T3 sequence (P43220 24-463): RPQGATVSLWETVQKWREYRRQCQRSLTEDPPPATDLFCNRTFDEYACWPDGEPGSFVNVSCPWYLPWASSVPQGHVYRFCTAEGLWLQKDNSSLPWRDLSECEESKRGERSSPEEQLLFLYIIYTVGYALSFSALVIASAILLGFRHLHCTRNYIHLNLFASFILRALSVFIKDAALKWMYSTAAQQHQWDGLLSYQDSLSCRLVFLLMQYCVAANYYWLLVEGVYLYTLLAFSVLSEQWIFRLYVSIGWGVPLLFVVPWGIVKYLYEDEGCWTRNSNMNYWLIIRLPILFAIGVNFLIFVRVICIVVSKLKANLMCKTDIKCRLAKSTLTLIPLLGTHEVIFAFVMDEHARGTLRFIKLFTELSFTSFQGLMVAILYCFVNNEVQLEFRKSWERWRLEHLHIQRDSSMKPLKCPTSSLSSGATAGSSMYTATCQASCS

Substance | rGIPR Efficacy (%) (rat GIPR) | Efficacy GLP-2R (human GLP-2R; [3]) | Efficacy GLP-1R (human GLP-1R; [4]) | Efficacy GIPR (human GIPR [1]; [3]) | rGLP-2R Efficacy (%) (rat GLP-2R) | AUC ± SD (human SNAP-GIPR; GIPR internalization, AUC of sigmoid curves up to 1 μM) | Emax ± SD (%) (human SNAP-GIPR; GIPR internalization) | AUC ± SD (human GIPR [2]) | Emax ± SD (%) (human GIPR [2]) | AUC ± SD (human SNAP-GIPR) | maGIPR Efficacy (%) (macaque GIPR; Emax normalized to highest concentration of the endogenous ligand, COS-7 cells) | maGIPR pEC50 (macaque GIPR; cAMP, transiently transfected COS-7 cells) | Efficacy GLP-2R (human GLP-2R; [5]) | Efficacy GLP-1R (human GLP-1R; [6]) | activation of hGLP-1R (human GLP-1R) | Efficacy GIPR (human GIPR [1]; [7])
(C10)H-Aib-DGTFISDYST-Aib-LDNLAARDFINWLIQTKITK-OH [Compound no. 44] | 87.3% | 100 | 19 | 110 | 90.0% |  |  |  |  |  |  |  |  |  |  | 
(C16)HADGTFISDYSTAibLDNLAARDFINWLIQTKITKNDWKHNITQ [Compound no. 53] | 77.3% | 79 |  | 90 | 18.0% |  |  |  |  |  |  |  |  |  |  | 
Ac-H-Aib-DGTFISDYS-K(γGlu-C16)-Aib-LDNLAARDFINWLIQTKITK-OH [Compound no. 36] |  | 76 | 19 | 92 |  | 47 ± 1 | 58 ± 8% |  |  |  |  |  |  |  |  | 
H-Aib-DG-K(γGlu-C10)-FISDYST-Aib-LDNLAARDFINWLIQTKITK-OH [Compound no. 24] | 96.3% | 90 |  | 113 | 76.3% |  | 68 ± 3% | 117 ± 31 | 57 ± 16% | 113 ± 4 |  |  |  |  |  | 
H-Aib-DG-K(γGlu-C16 diacid)-FISDYST-Aib-LDNLAARDFINWLIQTKITK-OH [Compound no. 25] | 71.7% | 88 |  | 93 | 65.0% |  | 46 ± 2% | 42 ± 15 | 23 ± 7% | 57 ± 2 |  |  |  |  |  | 
H-Aib-DG-K(γGlu-C16)-FISDYSTILDNLAARDFINWLIQTKITK-OH [Compound no. 9] | 74.3% | 91 | 32 | 110 | 82.0% |  |  |  |  |  |  |  |  |  |  | 
H-Aib-DGTFISDY-K(yglu-C10)-T-Aib-LDNLAARDFINWLIQTKITGNDWKHNITQ-OH [Compound no. 54] | 110.3% | 87 | 8 | 86 | 108.0% |  |  |  |  |  | 71.8% | 7.7 |  |  |  | 
H-Aib-DGTFISDY-K(γGlu-C10)-TILDKLAARDFIEWLIATKITK-OH [Compound no. 31] | 85.0% | 90 | 6 | 89 | 86.3% |  |  | 0 |  | 0 |  |  |  |  |  | 
H-Aib-DGTFISDY-K(γGlu-C16)-T-Aib-LDALAARDFIEWLIQTKITK-OH [Compound no. 33] | 98.7% | 97 |  | 101 | 96.3% |  | 25 ± 3% | 23 ± 12 | 9 ± 5% | 27 ± 2 |  |  |  |  |  | 
H-Aib-DGTFISDY-K(γGlu-C16)-TAib-LDNLAARDFINWLIQTKITKNDWKHNITQ-OH [Compound no. 37] | 91.0% | 97 |  |  | 83.3% |  | 24 ± 5% | 0 | 15 ± 41% | 15 ± 4 |  |  |  |  |  | 
H-Aib-DGTFISDY-K(γGlu-C16)-TILDNLAARDFINWLIQTKGKKNDWKHNITQ-NH2 [Compound no. 14] | 98.3% | 114 | 0 | 101 | 93.3% |  |  |  |  |  |  |  |  |  |  | 
H-Aib-DGTFISDYS-K(γGlu-C16)-Aib-LDNLAARDFINWLIQTKITK-OH [Compound no. 35] | 86.3% | 88 | 31 | 106 | 87.3% |  |  | 58 ± 14 | 34 ± 7% |  |  |  |  |  |  | 
H-Aib-DGTFISDYST-Aib-LDNLAARDFINWLIQTKITK(C10)-NH2 [Compound no. 65, reference compound] |  |  |  |  |  |  |  |  |  |  |  |  | 77 | 76 | capable of activating hGLP-1R | 107
H-Aib-DGTFISDYSTIL-K(γGlu-C16)-NLAARDFINWLIQTKITK-OH [Compound no. 13] | 69.7% | 95 | 4 | 95 | 83.7% |  |  |  |  |  |  |  |  |  |  | 
H-Aib-DGTFISDYSTILDNLAARDFINWLIQTKITK(C10)-OH [Compound no. 63, reference compound] |  |  |  |  |  |  |  |  |  |  |  |  | 105 | 84 | capable of activating hGLP-1R | 99
H-Aib-EG-K(γGlu-C16)-FISDYST-Aib-LDNLAARDFINWLIQTKITK-OH [Compound no. 27] |  | 108 | 0 | 98 |  |  |  |  |  |  |  |  |  |  |  | 
